Experimental findings from patent US12522601B2, “1,3,4-oxadiazole derivative compounds as histone deacetylase 6 inhibitor, and the pharmaceutical composition comprising the same” (CHONG KUN DANG PHARMACEUTICAL CORP., priority 2020, dated 2026) are described below.

pIC50: −log10 of the molar value.

The target in one test is T1, human recombinant HDAC6 (Homo sapiens, UniProt Q9UBN7).
T1 construct: purchased Calbiochem Inc. 382180
T1 sequence (Q9UBN7 1-1215): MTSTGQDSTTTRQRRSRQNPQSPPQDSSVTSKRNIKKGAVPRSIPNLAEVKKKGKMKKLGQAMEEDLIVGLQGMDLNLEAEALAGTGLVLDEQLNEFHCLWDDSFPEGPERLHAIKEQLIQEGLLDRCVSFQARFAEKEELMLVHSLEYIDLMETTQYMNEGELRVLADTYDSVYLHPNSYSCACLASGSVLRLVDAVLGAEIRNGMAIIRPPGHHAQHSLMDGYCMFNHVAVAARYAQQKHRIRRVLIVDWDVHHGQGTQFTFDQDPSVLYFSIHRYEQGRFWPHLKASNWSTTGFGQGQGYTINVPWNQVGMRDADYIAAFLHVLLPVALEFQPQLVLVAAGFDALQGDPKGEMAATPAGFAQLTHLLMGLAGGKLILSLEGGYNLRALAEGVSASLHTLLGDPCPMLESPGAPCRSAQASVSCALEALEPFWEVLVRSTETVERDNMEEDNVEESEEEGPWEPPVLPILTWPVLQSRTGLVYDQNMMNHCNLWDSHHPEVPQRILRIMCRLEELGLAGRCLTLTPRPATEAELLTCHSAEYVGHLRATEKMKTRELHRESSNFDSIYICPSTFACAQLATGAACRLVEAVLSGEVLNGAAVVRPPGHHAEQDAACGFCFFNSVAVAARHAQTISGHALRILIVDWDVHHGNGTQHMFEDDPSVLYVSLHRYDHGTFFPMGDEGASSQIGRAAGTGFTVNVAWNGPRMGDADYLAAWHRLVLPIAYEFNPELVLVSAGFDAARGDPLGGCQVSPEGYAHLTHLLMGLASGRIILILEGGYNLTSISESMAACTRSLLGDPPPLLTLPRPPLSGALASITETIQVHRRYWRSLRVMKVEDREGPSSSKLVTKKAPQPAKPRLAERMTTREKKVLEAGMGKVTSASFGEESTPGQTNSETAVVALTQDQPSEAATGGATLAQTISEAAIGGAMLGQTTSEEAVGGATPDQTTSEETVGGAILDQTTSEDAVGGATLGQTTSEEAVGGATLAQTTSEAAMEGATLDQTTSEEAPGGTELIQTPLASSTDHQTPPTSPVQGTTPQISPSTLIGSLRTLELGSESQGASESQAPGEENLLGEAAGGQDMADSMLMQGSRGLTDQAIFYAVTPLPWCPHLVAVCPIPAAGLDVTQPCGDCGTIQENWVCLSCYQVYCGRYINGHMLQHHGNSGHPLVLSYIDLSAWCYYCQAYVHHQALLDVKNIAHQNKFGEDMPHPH
Kind of test: In vitro HDAC enzyme activity inhibition assay, HDAC6 (HDAC Fluorimetric Drug Discovery Kit). Format: biochemical. The conditions noted are these: for HDAC6 Selectivity (fold): HDAC6 versus HDAC1; for pIC50: human recombinant HDAC6, same protocol as the HDAC1 test. The essentials:
(§1)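 Both HDAC1 and HDAC6 (human recombinant, 0.3 μg) tested identically: 10 μM fluorogenic Fluor de Lys-SIRT1 substrate, reaction 60 min at 30° C, developer added for 30 min. IC50 calculated from Ex 360/Em 460 signal over 5-fold serial dilutions.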

The target of another test is T2, human recombinant HDAC1 (Homo sapiens, UniProt Q13547).
T2 construct: purchased Enzo Life Sciences, Inc. BML-SE456
The experiment in a line: In vitro HDAC enzyme activity inhibition assay, HDAC1 (HDAC Fluorimetric Drug Discovery Kit). Format: biochemical. The conditions noted are these: human recombinant HDAC1, Fluor de Lys-SIRT1 substrate 10 μM, 30° C. for 60 minutes. The essentials: as §1

By pIC50 is commonly meant the negative decadic logarithm of the IC50, by convention in mol/L.

T2 sequence (Q13547 whole entry): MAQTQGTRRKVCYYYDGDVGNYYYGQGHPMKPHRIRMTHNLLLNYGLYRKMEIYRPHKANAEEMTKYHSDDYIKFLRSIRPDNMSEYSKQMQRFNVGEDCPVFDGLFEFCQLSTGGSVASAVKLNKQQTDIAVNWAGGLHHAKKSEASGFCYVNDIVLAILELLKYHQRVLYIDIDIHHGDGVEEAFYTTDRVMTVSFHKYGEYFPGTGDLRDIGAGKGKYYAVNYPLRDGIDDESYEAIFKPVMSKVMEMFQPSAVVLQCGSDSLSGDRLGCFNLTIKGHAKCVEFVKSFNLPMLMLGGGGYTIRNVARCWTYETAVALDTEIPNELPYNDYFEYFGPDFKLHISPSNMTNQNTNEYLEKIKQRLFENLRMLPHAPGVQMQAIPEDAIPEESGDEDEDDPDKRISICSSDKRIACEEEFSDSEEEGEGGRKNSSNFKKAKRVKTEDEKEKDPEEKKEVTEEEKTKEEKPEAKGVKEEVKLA

As to `CS(=O)(=O)N1CCC(C(=O)N(Cc2cn3ccc(-c4nnc(C(F)F)o4)cc3n2)c2cccc(F)c2)CC1` [Compound 4153, N-((7-(5-(difluoromethyl)-1,3,4-oxadiazol-2-yl)imidazo[1,2-a]pyridin-2-yl)methyl)-N-(3-fluorophenyl)-1-(methylsulfonyl)piperidine-4-carboxamide], the “HDAC6 Selectivity (fold)” value on human recombinant HDAC6 is recorded as 363 fold. For the same molecule, the pIC50 on human recombinant HDAC6 is 6.86; on human recombinant HDAC1, less than 4.30.

Take `O=C(C1CCN(C2CCC(F)(F)CC2)CC1)N(Cc1cn2ccc(-c3nnc(C(F)F)o3)cc2n1)c1ccccc1` [Compound 4121, 1-(4,4-difluorocyclohexyl)-N-((7-(5-(difluoromethyl)-1,3,4-oxadiazol-2-yl)imidazo[1,2-a]pyridin-2-yl)methyl)-N-phenylpiperidine-4-carboxamide]: on human recombinant HDAC6, the “HDAC6 Selectivity (fold)” value is 122 fold and the pIC50 was 6.39. Besides, the pIC50 on human recombinant HDAC1 is less than 4.30.

Take `Fc1ccc(NCc2cn3ccc(-c4nnc(C(F)F)o4)cc3n2)cn1` [Compound 3676, N-((7-(5-(difluoromethyl)-1,3,4-oxadiazol-2-yl)imidazo[1,2-a]pyridin-2-yl)methyl)-6-fluoropyridin-3-amine]: on human recombinant HDAC6, the “HDAC6 Selectivity (fold)” value was determined as 354 fold and the pIC50 was 6.85. At human recombinant HDAC1, the pIC50 is less than 4.30.

For the molecule `CCC(=O)N1CC(C(=O)N(Cc2cn3ccc(-c4nnc(C(F)F)o4)cc3n2)c2cccc(F)c2)C1` [Compound 4198], at human recombinant HDAC6, the “HDAC6 Selectivity (fold)” value turned out to be 271 fold and the pIC50 is 6.73. Moreover, at human recombinant HDAC1, the pIC50 is less than 4.30.

Consider `Fc1ccc(Cc2cn3ccc(-c4nnc(C(F)F)o4)cc3n2)c(F)c1` [Compound 3588, 2-(2-(2,4-difluorobenzyl)imidazo[1,2-a]pyridin-7-yl)-5-(difluoromethyl)-1,3,4-oxadiazole], for which, on human recombinant HDAC6, the “HDAC6 Selectivity (fold)” value was 205 fold and the pIC50 was 6.61. The pIC50 at human recombinant HDAC1 is less than 4.30.

On to `CS(=O)(=O)N1CCN(C(=O)N(Cc2cn3ccc(-c4nnc(C(F)F)o4)cc3n2)c2cccc(F)c2)CC1` [Compound 4097, N-((7-(5-(difluoromethyl)-1,3,4-oxadiazol-2-yl)imidazo[1,2-a]pyridin-2-yl)methyl)-N-(3-fluorophenyl)-4-(methylsulfonyl)piperazine-1-carboxamide], for which the “HDAC6 Selectivity (fold)” value on human recombinant HDAC6 worked out at 335 fold. The pIC50 at human recombinant HDAC6 was 6.83; on human recombinant HDAC1 it was less than 4.30.

Consider `O=C(N1CCN(C2CCCCC2)CC1)N(Cc1cn2ccc(-c3nnc(C(F)F)o3)cc2n1)c1ccccc1` [Compound 4037, 4-cyclohexyl-N-((7-(5-(difluoromethyl)-1,3,4-oxadiazol-2-yl)imidazo[1,2-a]pyridin-2-yl)methyl)-N-phenylpiperazine-1-carboxamide], for which, on human recombinant HDAC6, the “HDAC6 Selectivity (fold)” value came out at 404 fold and the pIC50 was 6.91. Further, the pIC50 at human recombinant HDAC1 is less than 4.30.

Consider `FC(F)c1nnc(-c2ccn3cc(CNC4CCCCC4)nc3c2)o1` [Compound 3678, N-((7-(5-(difluoromethyl)-1,3,4-oxadiazol-2-yl)imidazo[1,2-a]pyridin-2-yl)methyl)cyclohexanamine], for which, at human recombinant HDAC6, the “HDAC6 Selectivity (fold)” value was found to be 170 fold and the pIC50 was 6.53. Besides, the pIC50 at human recombinant HDAC1 was less than 4.30.

Regarding `CN1CC(C(=O)N(Cc2cn3ccc(-c4nnc(C(F)F)o4)cc3n2)c2ccccc2)C1` [Compound 4158, N-((7-(5-(difluoromethyl)-1,3,4-oxadiazol-2-yl)imidazo[1,2-a]pyridin-2-yl)methyl)-1-methyl-N-phenylazetidine-3-carboxamide], on human recombinant HDAC6, the “HDAC6 Selectivity (fold)” value was found to be 112 fold and the pIC50 was 6.35. In addition, the pIC50 at human recombinant HDAC1 is less than 4.30.

Consider `CC(=O)N1CCC(C(=O)N(Cc2cn3ccc(-c4nnc(C(F)F)o4)cc3n2)c2ccccc2)CC1` [Compound 4122, 1-acetyl-N-((7-(5-(difluoromethyl)-1,3,4-oxadiazol-2-yl)imidazo[1,2-a]pyridin-2-yl)methyl)-N-phenylpiperidine-4-carboxamide], for which, on human recombinant HDAC6, the “HDAC6 Selectivity (fold)” value turned out to be 142 fold and the pIC50 is 6.45. For the same molecule, the negative logarithm of the IC50 (pIC50) at human recombinant HDAC1 was less than 4.30.

`CC(=O)c1ccc(Cc2cn3ccc(-c4nnc(C(F)F)o4)cc3n2)cc1` [Compound 3592, 1-(4-((7-(5-(difluoromethyl)-1,3,4-oxadiazol-2-yl)imidazo[1,2-a]pyridin-2-yl)methyl)phenyl)ethan-1-one]: at human recombinant HDAC6, the “HDAC6 Selectivity (fold)” value came to 109 fold and the pIC50 is 6.34. For the same molecule, on human recombinant HDAC1, the pIC50 is less than 4.30.

For the molecule `O=C(C1CCC1)N1CC(C(=O)N(Cc2cn3ccc(-c4nnc(C(F)F)o4)cc3n2)c2cccc(F)c2)C1` [Compound 4200, 1-(cyclobutanecarbonyl)-N-((7-(5-(difluoromethyl)-1,3,4-oxadiazol-2-yl)imidazo[1,2-a]pyridine-2-yl)methyl)-N-(3-fluorophenyl) azetidine-3-carboxamide], at human recombinant HDAC6, the “HDAC6 Selectivity (fold)” value is recorded as 228 fold and the pIC50 was 6.66. Further, the pIC50 at human recombinant HDAC1 is less than 4.30.

As for `Cc1ccc(Cc2cn3ccc(-c4nnc(C(F)F)o4)cc3n2)cc1` [Compound 3589, 2-(difluoromethyl)-5-(2-(4-methylbenzyl)imidazo[1,2-a]pyridin-7-yl)-1,3,4-oxadiazole], the “HDAC6 Selectivity (fold)” value at human recombinant HDAC6 is reported as 94 fold. For the same molecule, the pIC50 at human recombinant HDAC6 is 6.28; at human recombinant HDAC1, less than 4.30.

Take `O=C(C1CCN(C2COC2)CC1)N(Cc1cn2ccc(-c3nnc(C(F)F)o3)cc2n1)c1cccc(F)c1` [Compound 4142, N-((7-(5-(difluoromethyl)-1,3,4-oxadiazol-2-yl)imidazo[1,2-a]pyridin-2-yl)methyl)-N-(3-fluorophenyl)-1-(oxetan-3-yl)piperidine-4-carboxamide]: on human recombinant HDAC6, the “HDAC6 Selectivity (fold)” value worked out at 234 fold and the pIC50 is 6.67. For the same molecule, the pIC50 at human recombinant HDAC1 was less than 4.30.

Turning to `O=C(C1CCN(C2CC3(COC3)C2)CC1)N(Cc1cn2ccc(-c3nnc(C(F)F)o3)cc2n1)c1cccc(F)c1` [Compound 4619, N-((7-(5-(difluoromethyl)-1,3,4-oxadiazol-2-yl)imidazo[1,2-a]pyridin-2-yl)methyl)-N-(3-fluorophenyl)-1-(2-oxaspiro[3.3]heptan-6-yl)piperidine-4-carboxamide], at human recombinant HDAC6, the “HDAC6 Selectivity (fold)” value was 253 fold. Moreover, the pIC50 on human recombinant HDAC6 is 6.71; on human recombinant HDAC1, less than 4.30.

For the molecule `O=C(N1CCN(C2CCC2)CC1)N(Cc1cn2ccc(-c3nnc(C(F)F)o3)cc2n1)c1ccccc1` [Compound 4036, 4-cyclobutyl-N-((7-(5-(difluoromethyl)-1,3,4-oxadiazol-2-yl)imidazo[1,2-a]pyridin-2-yl)methyl)-N-phenylpiperazine-1-carboxamide], on human recombinant HDAC6, the “HDAC6 Selectivity (fold)” value came out at 321 fold and the pIC50 was 6.81. For the same molecule, at human recombinant HDAC1, the pIC50 was less than 4.30.

Take `Cc1cccc(OCc2cn3ccc(-c4nnc(C(F)F)o4)cc3n2)c1` [Compound 3720, 2-(difluoromethyl)-5-(2-((m-tolyloxy)methyl)imidazo[1,2-a]pyridin-7-yl)-1,3,4-oxadiazole]: at human recombinant HDAC6, the “HDAC6 Selectivity (fold)” value came out at 121 fold and the pIC50 was 6.38. For the same molecule, at human recombinant HDAC1, the pIC50 was less than 4.30.

Regarding `O=C(C1CN(c2ccccn2)C1)N(Cc1cn2ccc(-c3nnc(C(F)F)o3)cc2n1)c1cccc(F)c1` [Compound 4206, N-((7-(5-(difluoromethyl)-1,3,4-oxadiazol-2-yl)imidazo[1,2-a]pyridin-2-yl)methyl)-N-(3-fluorophenyl)-1-(pyridin-2-yl) azetidine-3-carboxamide], at human recombinant HDAC6, the “HDAC6 Selectivity (fold)” value was found to be 361 fold and the pIC50 is 6.86. Also, the pIC50 on human recombinant HDAC1 was less than 4.30.

For `CS(=O)(=O)N1CC(C(=O)N(Cc2cn3ccc(-c4nnc(C(F)F)o4)cc3n2)c2cccc(F)c2)C1` [Compound 4203, N-((7-(5-(difluoromethyl)-1,3,4-oxadiazol-2-yl)imidazo[1,2-a]pyridin-2-yl)methyl)-N-(3-fluorophenyl)-1-(methylsulfonyl) azetidine-3-carboxamide], the “HDAC6 Selectivity (fold)” value on human recombinant HDAC6 came out at 295 fold. For the same molecule, the pIC50 at human recombinant HDAC6 was 6.77; on human recombinant HDAC1 it was less than 4.30.
